{"source": "PubChem BioAssay AID270", "about": "(DTP/NCI, 2004)", "tested_on": "BDF1 mice, s.c. Lewis lung carcinoma, T/C %", "assay": "NCI In Vivo Anticancer Drug Screen. Data for tumor model Lewis Lung Carcinoma (subcutaneous) in B6D2F1 (BDF1) mice", "method_in_brief": "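Readout: survival or tumor size, expressed as treated (T) over vehicle control (C). Transplantable tumor implanted in mice; compound given to the treated group.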", "key": {"[1]": {"details": "endpoint: mean tumor weight, dose: 300.0 mg/kg/injection, schedule: Q01DX011 (ip), vehicle: other, higher = larger tumour"}, "[2]": {"details": "endpoint: mean tumor weight, dose: 600.0 mg/kg/injection, schedule: Q01DX011 (ip), vehicle: other, higher = larger tumour"}, "[3]": {"details": "endpoint: mean tumor weight, dose: 133.0 mg/kg/injection, schedule: Q01DX011 (ip), vehicle: other, higher = larger tumour"}, "[4]": {"details": "endpoint: mean tumor weight, dose: 450.0 mg/kg/injection, schedule: Q01DX011 (ip), vehicle: other, higher = larger tumour"}}, "note": "Where “and” joins values, the source holds several entries; their conditions need not be identical. Identical values can stand only once. Records with an inconclusive call do not appear.", "data": [{"smiles": "Nc1c(Cl)c(Cl)nc(C(=O)O)c1Cl", "values": [{"measurement": "T/C", "setting": "endpoint: median survival time, dose: 25.0 mg/kg/injection, schedule: Q02DX009 (ip), vehicle: Klucel (hydroxypropylcellulose) (HPC), higher = longer survival", "result": "109 % of control"}, {"measurement": "T/C", "setting": "endpoint: median survival time, dose: 25.0 mg/kg/injection, schedule: Q02DX009 (ip), vehicle: distilled water + Tween-80, higher = longer survival", "result": "121 % of control"}, {"measurement": "T/C", "setting": "endpoint: median survival time, dose: 50.0 mg/kg/injection, schedule: Q02DX009 (ip), vehicle: Klucel (hydroxypropylcellulose) (HPC), higher = longer survival", "result": "98 % of control"}, {"measurement": "T/C", "setting": "endpoint: median survival time, dose: 50.0 mg/kg/injection, schedule: Q02DX009 (ip), vehicle: distilled water + Tween-80, higher = longer survival", "result": "104 % of control"}, {"measurement": "T/C", "setting": "endpoint: median survival time, dose: 100.0 mg/kg/injection, schedule: Q02DX009 (ip), vehicle: Klucel (hydroxypropylcellulose) (HPC), higher = longer survival", "result": "91 % of control"}, {"measurement": "T/C", "setting": "endpoint: median survival time, dose: 100.0 mg/kg/injection, schedule: Q02DX009 (ip), vehicle: distilled water + Tween-80, higher = longer survival", "result": "88 % of control"}, {"measurement": "T/C", "setting": "endpoint: median survival time, dose: 200.0 mg/kg/injection, schedule: Q02DX009 (ip), vehicle: Klucel (hydroxypropylcellulose) (HPC), higher = longer survival", "result": "92 % of control"}, {"measurement": "T/C", "setting": "endpoint: median survival time, dose: 200.0 mg/kg/injection, schedule: Q02DX009 (ip), vehicle: distilled water + Tween-80, higher = longer survival", "result": "100 % of control"}]}, {"smiles": "Oc1ccc2ccccc2c1N=Nc1ccccc1", "values": [{"measurement": "T/C", "setting": "endpoint: mean tumor weight, dose: 25.0 mg/kg/injection, schedule: Q01DX011 (ip), vehicle: carboxymethylcellulose (CMC), higher = larger tumour", "result": "78 % of control"}, {"measurement": "T/C", "setting": "endpoint: mean tumor weight, dose: 50.0 mg/kg/injection, schedule: Q01DX011 (ip), vehicle: carboxymethylcellulose (CMC), higher = larger tumour", "result": "75 % of control"}, {"measurement": "T/C", "setting": "endpoint: mean tumor weight, dose: 100.0 mg/kg/injection, schedule: Q01DX011 (ip), vehicle: carboxymethylcellulose (CMC), higher = larger tumour", "result": "84 % of control"}, {"measurement": "T/C", "setting": "endpoint: mean tumor weight, dose: 200.0 mg/kg/injection, schedule: Q01DX011 (ip), vehicle: carboxymethylcellulose (CMC), higher = larger tumour", "result": "43 % of control"}]}, {"smiles": "COc1cc(OC)c(OC)cc1/C=C\\c1ccnc2ccccc12", "values": [{"measurement": "T/C", "setting": "endpoint: median survival time, dose: 50.0 mg/kg/injection, schedule: Q01DX009 (ip), vehicle: Klucel (hydroxypropylcellulose) (HPC), higher = longer survival", "result": "94 % of control"}, {"measurement": "T/C", "setting": "endpoint: median survival time, dose: 100.0 mg/kg/injection, schedule: Q01DX009 (ip), vehicle: Klucel (hydroxypropylcellulose) (HPC), higher = longer survival", "result": "93 % of control"}, {"measurement": "T/C", "setting": "endpoint: median survival time, dose: 400.0 mg/kg/injection, schedule: Q01DX009 (ip), vehicle: Klucel (hydroxypropylcellulose) (HPC), higher = longer survival", "result": "97 % of control"}]}, {"smiles": "COc1cc([C@@H]2c3cc4c(cc3[C@H](O)[C@H]3COC(=O)[C@H]23)OCO4)cc(OC)c1OC", "values": [{"measurement": "T/C", "setting": "endpoint: mean tumor weight, dose: 1.0 mg/kg/injection, schedule: Q01DX011 (ip), vehicle: carboxymethylcellulose (CMC), higher = larger tumour", "result": "84 % of control"}, {"measurement": "T/C", "setting": "endpoint: mean tumor weight, dose: 2.0 mg/kg/injection, schedule: Q01DX011 (ip), vehicle: carboxymethylcellulose (CMC), higher = larger tumour", "result": "36 % of control"}]}, {"smiles": "CC(=N\\O)/C(C)=N/O.CC(=N\\O)/C(C)=N/O.[Pd]", "values": [{"measurement": "T/C", "setting": "endpoint: median survival time, dose: 0.75 mg/kg/injection, schedule: Q01DX009 (ip), vehicle: Klucel (hydroxypropylcellulose) (HPC), higher = longer survival", "result": "109 % of control"}, {"measurement": "T/C", "setting": "endpoint: median survival time, dose: 1.57 mg/kg/injection, schedule: Q01DX009 (ip), vehicle: Klucel (hydroxypropylcellulose) (HPC), higher = longer survival", "result": "97 % of control"}]}, {"smiles": "ClCCn1cnc2c(SCc3ccccc3)ncnc21", "values": [{"measurement": "T/C", "setting": "endpoint: mean tumor weight, dose: 60.0 mg/kg/injection, schedule: Q01DX011 (ip), vehicle: other, higher = larger tumour", "result": "107 % of control"}, {"measurement": "T/C", "setting": "endpoint: mean tumor weight, dose: 120.0 mg/kg/injection, schedule: Q01DX011 (ip), vehicle: other, higher = larger tumour", "result": "77 % of control"}, {"measurement": "T/C", "setting": "endpoint: mean tumor weight, dose: 240.0 mg/kg/injection, schedule: Q01DX011 (ip), vehicle: other, higher = larger tumour", "result": "46 % of control"}]}, {"smiles": "COC1=NCN=C2SC=C(N)N=C12", "values": [{"measurement": "T/C", "setting": "endpoint: median survival time, dose: 12.5 mg/kg/injection, schedule: Q01DX009 (ip), vehicle: saline, higher = longer survival", "result": "107 % of control"}, {"measurement": "T/C", "setting": "endpoint: median survival time, dose: 25.0 mg/kg/injection, schedule: Q01DX009 (ip), vehicle: saline, higher = longer survival", "result": "122 % of control"}, {"measurement": "T/C", "setting": "endpoint: median survival time, dose: 50.0 mg/kg/injection, schedule: Q01DX009 (ip), vehicle: saline, higher = longer survival", "result": "110 % of control"}]}, {"smiles": "Nc1nc(SCc2ccccc2)c2ncn(C3CCCC3)c2n1", "values": [{"measurement": "T/C", "setting": "endpoint: mean tumor weight, dose: 75.0 mg/kg/injection, schedule: Q01DX011 (ip), vehicle: other, higher = larger tumour", "result": "115 % of control"}, {"measurement": "T/C", "setting": "endpoint: mean tumor weight, dose: 150.0 mg/kg/injection, schedule: Q01DX011 (ip), vehicle: other, higher = larger tumour", "result": "81 % of control"}, {"measurement": "T/C", "setting": "[1]", "result": "54 % of control"}, {"measurement": "T/C", "setting": "[2]", "result": "47 % of control and 65 % of control"}, {"measurement": "T/C", "setting": "endpoint: mean tumor weight, dose: 750.0 mg/kg/injection, schedule: Q01DX011 (ip), vehicle: other, higher = larger tumour", "result": "52 % of control"}]}, {"smiles": "O=C(O)C1CCCCN1", "note": "(stereo not given)", "values": [{"measurement": "T/C", "setting": "[3]", "result": "110 % of control"}, {"measurement": "T/C", "setting": "[1]", "result": "123 % of control"}, {"measurement": "T/C", "setting": "[4]", "result": "116 % of control"}]}, {"smiles": "O=NN(CCCl)C(=O)Nc1ccc2[nH]c3ccccc3c2c1", "values": [{"measurement": "T/C", "setting": "endpoint: median survival time, dose: 4.0 mg/kg/injection, schedule: Q01DX009 (ip), vehicle: Klucel (hydroxypropylcellulose) (HPC), higher = longer survival", "result": "119 % of control"}, {"measurement": "T/C", "setting": "endpoint: median survival time, dose: 8.12 mg/kg/injection, schedule: Q01DX009 (ip), vehicle: Klucel (hydroxypropylcellulose) (HPC), higher = longer survival", "result": "110 % of control"}, {"measurement": "T/C", "setting": "endpoint: median survival time, dose: 32.5 mg/kg/injection, schedule: Q01DX009 (ip), vehicle: Klucel (hydroxypropylcellulose) (HPC), higher = longer survival", "result": "97 % of control"}]}, {"smiles": "O=S(=O)(Cl)c1cc(Cl)c(Cl)cc1Cl", "values": [{"measurement": "T/C", "setting": "[3]", "result": "71 % of control"}, {"measurement": "T/C", "setting": "[1]", "result": "83 % of control"}, {"measurement": "T/C", "setting": "[4]", "result": "28 % of control and 41 % of control"}, {"measurement": "T/C", "setting": "[2]", "result": "75 % of control"}]}]}
